In patent US8609084B2, “Protection of plants against their pathogenic agents” (Lesaffre et Compagnie, priority 2005, dated 2013):

System: Venturia inaequalis
Assay: Efficiency against scab, grafted apple plants in pots
Assay type: in vivo
Set-up: Efficiency (%) Leaves treated / Efficiency (%) All leaves / Efficiency (%) New leaves: concentration or dose not given beside the values
Protocol: The test was carried out on grafted plants, in pots. Three species were used: ‘Reinette des Capucins’, ‘Jonagold’, and ‘Reinette de Waleffe’, grafted on M9 rootstock. The plants were grown under a plastic tunnel at different times, so that they were all at the same stage at the time of the trial: starting with Reinette de Waleffe, then 15 days later, Reinette des Capucins, then 1 week later, Jonagold.
The plants were labelled with the variety and the method of treatment received before inoculation.
The method of treatment, preparation of the inoculum, inoculation and observations are similar to those described in example 1.
The plants were treated twice, successively, 10 days apart. The day following the second treatment, the last extended leaf ? F1 ? was identified.
Two days after the second treatment, the pathogen (Venturia inaequalis) was inoculated using a dose of 1.5×10^5 conidia/ml, directly in the moist room. Inoculation is followed by a 48 hours incubation in moist room at 18° C., then the plants remained in the boxes with a temperature of 18°±2° C. and a relative humidity of 80±10%.
The study was organised as follows:
The OY2 yeast cell walls correspond to an acqueous suspension at 25 mg/l of the Springcell 8001 product from Biospringer SAS, (Maisons-Alfort), France), with 96% cell walls of dry matter content.
The observations were made on the 21st day after the inoculation of the last 2 treated leaves (F2 and F1) and on the leaf newly formed after treatment (F0) for about 25 leaves per subject.
An observation at 41 days after the treatment gave the following results.
At this time, new leaves had extended: F-1 and F-2, and the disease progressed by natural contamination, without any re-inoculation.

[1] = All varieties, 21st day after inoculation
[2] = All varieties, 41 days after the treatment
[3] = Capucins, 21st day after inoculation
[4] = Capucins, 41 days after the treatment
[5] = Jonagold, 21st day after inoculation
[6] = Jonagold, 41 days after the treatment
[7] = Waleffe, 21st day after inoculation
[8] = Waleffe, 41 days after the treatment

Structure (SMILES): CC(N)CC(=O)O (stereo not drawn) [baba, β-aminobutyric acid]
- Efficiency (%) All leaves [1]: 47.2%
- Efficiency (%) F0 [1]: 27.0%
- Efficiency (%) F1 [1]: 47.1%
- Efficiency (%) F2 [1]: 67.6%
- Efficiency (%) Leaves treated [1]: 57.4%
- Sporulant surface/leaf (%) F0 [1]: 13.0%
- Sporulant surface/leaf (%) F1 [1]: 15.4%
- Sporulant surface/leaf (%) F2 [1]: 9.6%
- Efficiency (%) All leaves [2]: 54.2%
- Efficiency (%) New leaves [2]: 40.1%
- Efficiency (%) Treated leaves [2]: 68.1%
- Sporulant surface/leaf (%) F0 [2]: 31.0%
- Sporulant surface/leaf (%) F1 [2]: 26.7%
- Sporulant surface/leaf (%) F2 [2]: 10.0%
- Sporulant surface/leaf (%) F-1 [2]: 28.2%
- Sporulant surface/leaf (%) F-2 [2]: 8.6%
- Efficiency (%) All leaves [3]: 60.3%
- Efficiency (%) F0 [3]: 45.3%
- Efficiency (%) F1 [3]: 59.8%
- Efficiency (%) F2 [3]: 75.8%
- Efficiency (%) Leaves treated [3]: 67.8%
- Sporulant surface/leaf (%) F0 [3]: 4.3%
- Sporulant surface/leaf (%) F1 [3]: 8.0%
- Sporulant surface/leaf (%) F2 [3]: 4.2%
- Efficiency (%) All leaves [4]: 77.1%
- Efficiency (%) New leaves [4]: 55.5%
- Efficiency (%) Treated leaves [4]: 88.2%
- Sporulant surface/leaf (%) F0 [4]: 14.07%
- Sporulant surface/leaf (%) F1 [4]: 10.62%
- Sporulant surface/leaf (%) F2 [4]: 4.00%
- Sporulant surface/leaf (%) F-1 [4]: 9.95%
- Sporulant surface/leaf (%) F-2 [4]: 4.00%
- Efficiency (%) All leaves [5]: 57.9%
- Efficiency (%) F0 [5]: 38.0%
- Efficiency (%) F1 [5]: 50.5%
- Efficiency (%) F2 [5]: 85.1%
- Efficiency (%) Leaves treated [5]: 67.8%
- Sporulant surface/leaf (%) F0 [5]: 13.9%
- Sporulant surface/leaf (%) F1 [5]: 17.9%
- Sporulant surface/leaf (%) F2 [5]: 6.0%
- Efficiency (%) All leaves [6]: 57.7%
- Efficiency (%) New leaves [6]: 49.0%
- Efficiency (%) Treated leaves [6]: 67.8%
- Sporulant surface/leaf (%) F0 [6]: 37.79%
- Sporulant surface/leaf (%) F1 [6]: 27.57%
- Sporulant surface/leaf (%) F2 [6]: 10.57%
- Sporulant surface/leaf (%) F-1 [6]: 29.57%
- Sporulant surface/leaf (%) F-2 [6]: 3.43%
- Efficiency (%) All leaves [7]: 28.6%
- Efficiency (%) F0 [7]: 10.3%
- Efficiency (%) F1 [7]: 35.2%
- Efficiency (%) F2 [7]: 40.3%
- Efficiency (%) Leaves treated [7]: 37.8%
- Sporulant surface/leaf (%) F0 [7]: 20.9%
- Sporulant surface/leaf (%) F1 [7]: 20.4%
- Sporulant surface/leaf (%) F2 [7]: 18.6%
- Efficiency (%) All leaves [8]: 33.0%
- Efficiency (%) New leaves [8]: 24.0%
- Efficiency (%) Treated leaves [8]: 44.8%
- Sporulant surface/leaf (%) F0 [8]: 41.05%
- Sporulant surface/leaf (%) F1 [8]: 42.00%
- Sporulant surface/leaf (%) F2 [8]: 15.55%
- Sporulant surface/leaf (%) F-1 [8]: 45.16%
- Sporulant surface/leaf (%) F-2 [8]: 18.42%
